Literature values as cited in US20260293888A1, “METHODS OF TREATING MOLD” (priority 2023, published 2026).

flash point (TEG alone): 157 °C
boiling point (at a pressure of 101.325 kPa): 286.5 °C
miscibility with water (water): miscible with water
Compound: OCCOCCOCCO [Triethylene glycol, triethylene glycol]
vapor pressure (compared to water): relative low vapor pressure compared to water
